Assays:
[1] = biological target: Serotonin (5-HT) uptake (Rattus norvegicus (Rat), UniProt P31652); experiment: Serotonin (5-HT) uptake inhibitory activity by rat brain synaptosome; type: biochemical; conditions: test compound 300 nM, rat frontal cortex synaptosome; read-out: Serotonin uptake inhibitory ratio (%) (300 nM)
Description: Measurement of Serotonin (5-HT) Uptake Inhibitory Activity of a Test Compound by Rat Brain Synaptosome
Wistar male rats were decapitated, the brain was retrieved and frontal cortex was dissected out, and it was homogenized in 0.32 M sucrose solution of a weight 20 times of the weight of the tissue using a Potter type homogenizer. The homogenate was centrifuged at 4° C., 1,000×g for 10 minutes, the obtained supernatant was further centrifuged at 4° C., 20,000×g for 20 minutes, and the pellet was suspended in an incubation buffer (20 mM Hepes buffer (pH 7.4) containing 10 mM glucose, 145 mM sodium chloride, 4.5 mM potassium Chloride, 1.2 mM magnesium chloride, 1.5 mM calcium chloride), which was used as crude synaptosome fraction.
5-HT uptake reaction was performed in a volume of 200 μl using a 96-well round bottom plate and pargyline (final concentration 10 μM) and sodium ascorbate (final concentration 0.2 mg/ml) were contained in the incubation buffer upon reaction and used.
Incubation buffer (total counting), non-labeled 5-HT (final concentration 10 μM, non-specific counting) and the diluted test compound (final concentration 300 nM) were added to each well. One-tenth quantity of the final volume of the synaptosome fraction was added and after preincubated at 37° C. for 10 minutes, tritium labeled 5-HT solution (final concentration 8 nM) was added and uptake reaction was started at 37° C. The uptake time was 10 minutes and the reaction was terminated by vacuum filtration through a 96-well fiber glass filter paper plate, and after the filter paper was washed with cold normal saline, it was dried enough and Microscint0 (Perkin-Elmer) was added to the filter and remaining radioactivity on the filter was measured.

[2] = biological target: Dopamine D2 receptor (Rattus norvegicus (Rat), UniProt P61169); experiment: Dopamine D2 receptor binding assay ([3H]-raclopride, rat corpus striatum membrane); conditions: Ki from IC50 by Cheng-Prussoff formula
Description: Pharmacological Test 1 1) Dopamine D2 Receptor Binding Assay
Wistar male rats were decapitated, the brain was retrieved immediately and corpus striatum was taken out. It was homogenized in 50 mM tris(hydroxymethyl)aminomethane (Tris)-hydrochloric acid buffer (pH 7.4) of a volume 50 times of the weight of the tissue using a homogenizer with a high-speed rotating blade, and centrifuged at 4° C., 48,000×g for 10 minutes. The obtained precipitate was suspended again in the above-described buffer of a volume 50 times of the weight of the tissue and after incubated at 37° C. for 10 minutes, centrifuged in the above-described condition. The obtained precipitate was suspended in 50 mM (Tris)-hydrochloric acid buffer (containing 120 mM NaCl, 5 mM KCl, 2 mM CaCl2, 1 mM MgCl2, pH 7.4) of a volume 25 times of the weight of the tissue and preserved by freezing at −85° C. till it was used for binding assay as a membrane specimen.
The binding assay was performed using 40 μl of the membrane specimen, 20 μl of [^3H]-raclopride (final concentration 1 to 2 nM), 20 μl of a test drug and 50 mM Tris-hydrochloric acid buffer (containing 120 mM NaCl, 5 mM KCl, 2 mM CaCl2, 1 mM MgCl2, pH 7.4) so that the total amount was 200 μl (final dimethylsulfoxide concentration 1%). The reaction was performed at room temperature for 1 hour and terminated by conducting suction filtration with a cell harvester on a glass fiber filter plate. The filter plate made of glass fiber was washed with 50 mM Tris-hydrochloric acid buffer (pH 7.4), and after dried, a microplate liquid scintillation cocktail was added and the radioactivity was measured with a microplate scintillation counter. Radioactivity in the presence of 10 μM (+)-butaclamol hydrochloride was assumed as nonspecific binding.
(§1) IC50 value was calculated from concentration-dependent reaction using a non-linear analysis program. Ki value was calculated from IC50 value using Cheng-Prussoff formula.

[3] = biological target: Serotonin 5-HT2A receptor (Rattus norvegicus (Rat), UniProt P14842); experiment: Serotonin 5-HT2A receptor binding assay ([3H]-Ketanserin, rat frontal cortex membrane); conditions: Ki from IC50 by Cheng-Prussoff formula
Description: 2) Serotonin 5-HT2A Receptor Binding Assay
The assay was performed according to the method by Leysen J E et al. (Leysen J E, Niemegeers C J E, Van Nueten J M and Laduron P M. [3H] Ketanserin (R 41 468), a selective 3H-ligand for serotonin 2 receptor binding sites. Mol. Pharmacol., 1982, 21: 301-314).
Wistar male rats were decapitated, the brain was retrieved immediately and frontal cortex was taken out. It was homogenized in 0.25 M sucrose of a volume 10 times of the weight of the tissue using a Teflon glass homogenizer, and centrifuged at 4° C., 1,000×g for 10 minutes. The obtained supernatant was transferred to another centrifuge tube and suspended in 0.25 M sucrose of a volume 5 times of the weight of the tissue and the precipitate was centrifuged in the above-described condition. The obtained supernatant was combined with the supernatant obtained above and adjusted to a volume 40 times of the weight of the tissue with 50 mM Tris-hydrochloric acid buffer (pH 7.4), and centrifuged at 4° C., 35,000×g for 10 minutes. The obtained precipitate was suspended again in the above-described buffer of a volume 40 times of the weight of the tissue and centrifuged in the above-described condition. The obtained precipitate was suspended in the above-described buffer of a volume 20 times of the weight of the tissue and preserved by freezing at −85° C. till it was used for binding assay as a membrane specimen.
The binding assay was performed using 40 μl of the membrane specimen, 20 μl of [^3H]-Ketanserin (final concentration 1 to 3 nM), 20 μl of a test drug and 50 mM Tris-hydrochloric acid buffer (pH 7.4) so that the total amount was 200 μl (final dimethylsulfoxide concentration 1%). The reaction was performed at 37° C. for 20 minutes and terminated by conducting suction filtration with a cell harvester on a glass fiber filter plate.
The filter plate made of glass fiber was washed with 50 mM Tris-hydrochloric acid buffer (pH 7.4), and after dried, a microplate liquid scintillation cocktail was added and the radioactivity was measured with a microplate scintillation counter. Radioactivity in the presence of 10 μM spiperone was assumed as nonspecific binding.
as §1

[4] = biological target: Human recombinant dopamine D2 receptor (Homo sapiens (Human), UniProt P14416); conditions: forskolin-stimulated D2 expressing CHO/DHFR(-) cells, control drug
Description: Partial agonistic activity on dopamine D2 receptor was evaluated by quantitatively determining cyclic AMP production inhibitory effect of a test compound in dopamine D2 receptor expression cells in which adenosine 3′,5′-cyclic monophosphate (cyclic AMP) production was induced by forskolin stimulation.
Human recombinant dopamine D2 receptor expressing Chinese hamster ovary/DHFR(−) cells were cultured in a culture medium (Iscove's Modified Dulbecco's Medium (IMDM culture medium), 10% fetal bovine serum, 50 I.U./ml penicillin, 50 μg/ml streptomycin, 200 μg/ml geneticin, 0.1 mM sodium hypoxanthine, 16 μM thymidine) at 37° C. and 5% carbon dioxide condition. Cells were seeded at 10^4 cells/well on a 96-well microtiter plate coated with poly-L-lysine and grown under the same condition for 2 days. Each well was washed with 100 μl of a culture medium (IMDM culture medium, 0.1 mM sodium hypoxanthine, 16 μM thymidine).

Sequence of Serotonin (5-HT) uptake (P31652 whole entry): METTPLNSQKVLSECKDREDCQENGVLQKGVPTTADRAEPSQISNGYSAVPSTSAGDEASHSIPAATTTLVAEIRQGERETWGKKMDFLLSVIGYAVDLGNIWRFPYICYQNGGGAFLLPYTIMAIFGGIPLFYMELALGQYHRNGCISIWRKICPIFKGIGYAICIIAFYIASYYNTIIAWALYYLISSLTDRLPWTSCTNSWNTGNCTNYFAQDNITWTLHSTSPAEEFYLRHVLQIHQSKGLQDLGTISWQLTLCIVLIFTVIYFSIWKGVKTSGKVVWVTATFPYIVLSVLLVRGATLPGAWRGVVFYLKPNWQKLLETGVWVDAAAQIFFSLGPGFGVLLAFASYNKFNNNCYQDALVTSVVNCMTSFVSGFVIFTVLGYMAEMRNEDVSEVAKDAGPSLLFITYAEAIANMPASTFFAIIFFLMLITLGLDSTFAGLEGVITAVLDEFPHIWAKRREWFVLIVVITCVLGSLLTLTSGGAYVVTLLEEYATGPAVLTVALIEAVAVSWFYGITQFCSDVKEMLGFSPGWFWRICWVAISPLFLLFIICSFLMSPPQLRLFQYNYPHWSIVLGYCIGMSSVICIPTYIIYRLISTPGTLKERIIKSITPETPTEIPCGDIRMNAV
Sequence of Serotonin 5-HT2A receptor (P14842 whole entry): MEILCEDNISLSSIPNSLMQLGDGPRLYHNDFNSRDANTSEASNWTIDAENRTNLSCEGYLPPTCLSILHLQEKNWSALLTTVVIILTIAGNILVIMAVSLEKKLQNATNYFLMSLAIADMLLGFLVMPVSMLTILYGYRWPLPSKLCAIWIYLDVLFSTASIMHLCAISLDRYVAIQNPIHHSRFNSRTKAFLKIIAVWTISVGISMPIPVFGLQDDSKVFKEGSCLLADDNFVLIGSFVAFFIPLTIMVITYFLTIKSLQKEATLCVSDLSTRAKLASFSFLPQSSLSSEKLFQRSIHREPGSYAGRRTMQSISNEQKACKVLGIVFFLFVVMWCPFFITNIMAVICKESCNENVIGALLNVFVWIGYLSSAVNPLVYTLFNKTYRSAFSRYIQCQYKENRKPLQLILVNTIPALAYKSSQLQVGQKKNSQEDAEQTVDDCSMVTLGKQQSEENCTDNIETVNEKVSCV
Sequence of Dopamine D2 receptor (P61169 whole entry): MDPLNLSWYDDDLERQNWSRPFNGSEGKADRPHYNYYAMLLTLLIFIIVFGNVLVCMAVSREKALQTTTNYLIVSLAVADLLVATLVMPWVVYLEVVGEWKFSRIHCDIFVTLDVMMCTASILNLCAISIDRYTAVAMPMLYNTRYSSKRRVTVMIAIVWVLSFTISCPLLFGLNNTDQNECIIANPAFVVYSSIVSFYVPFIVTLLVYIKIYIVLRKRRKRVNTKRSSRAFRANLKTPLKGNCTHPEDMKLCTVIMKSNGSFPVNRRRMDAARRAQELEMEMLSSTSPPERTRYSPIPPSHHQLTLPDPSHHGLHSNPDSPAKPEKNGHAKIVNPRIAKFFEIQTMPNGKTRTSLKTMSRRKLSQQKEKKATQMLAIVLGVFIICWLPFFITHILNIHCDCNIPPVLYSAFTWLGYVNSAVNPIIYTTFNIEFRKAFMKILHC
Sequence of Human recombinant dopamine D2 receptor (P14416 whole entry): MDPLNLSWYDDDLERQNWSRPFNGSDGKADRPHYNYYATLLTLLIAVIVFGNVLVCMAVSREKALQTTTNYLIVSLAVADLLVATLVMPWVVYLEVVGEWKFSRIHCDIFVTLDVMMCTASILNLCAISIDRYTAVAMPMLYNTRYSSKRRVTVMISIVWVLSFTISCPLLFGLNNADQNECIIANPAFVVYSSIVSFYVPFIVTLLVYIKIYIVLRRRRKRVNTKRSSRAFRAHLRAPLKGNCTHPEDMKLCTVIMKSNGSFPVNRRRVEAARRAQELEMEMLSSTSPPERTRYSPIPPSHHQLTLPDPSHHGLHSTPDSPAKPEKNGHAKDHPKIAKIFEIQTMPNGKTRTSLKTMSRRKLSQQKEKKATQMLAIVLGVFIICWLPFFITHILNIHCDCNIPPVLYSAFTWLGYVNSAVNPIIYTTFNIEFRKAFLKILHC

Row | Compound | inhibition at 0.3 µM [1] [%] | Ki [2] [nM] | Ki [3] [nM] | quantity of cyclic AMP as the maximum activity (well without test compound = 100%) [4]
1 | Cc1cc2ccc(OCCCN3CCN(c4cccc5sccc45)CC3)cc2[nH]c1=O [Example 5, 7-[3-(4-benzo[b]thiophen-4-yl-piperazin-1-yl)propoxy]-3-methyl-1H-quinolin-2-one] | 89.1 | 0.6 | 6.4 | –
2 | O=c1ccc2ccc(OCCCN3CCN(c4cccc5sccc45)CC3)cc2[nH]1 [Example 7, 7-[3-(4-benzo[b]thiophen-4-yl-piperazin-1-yl)propoxy]-1H-quinolin-2-one] | 91 | 0.5 | 4 | –
3 | O=C1CCc2ccc(OCCCN3CCN(c4cccc5sccc45)CC3)cc2N1 [Example 10, 7-[3-(4-benzo[b]thiophen-4-yl-piperazin-1-yl)propoxy]-3,4-dihydro-1H-quinolin-2-one] | 92.6 | 0.4 | 3 | –
4 | O=C1CCc2ccc(OC/C=C/CN3CCN(c4cccc5sccc45)CC3)cc2N1 [Example 15, 7-[4-(4-benzo[b]thiophen-4-yl-piperazin-1-yl)-(E)-2-butenyloxy]-3,4-dihydro-1H-quinolin-2-one] | 87.2 | 0.2 | 3.3 | –
5 | CC1CC(=O)Nc2cc(OCCCCN3CCN(c4cccc5sccc45)CC3)ccc21 (stereo not shown) [Example 16, 7-[4-(4-benzo[b]thiophen-4-yl-piperazin-1-yl)butoxy]-4-methyl-3,4-dihydro-1H-quinolin-2-one] | 86.7 | 0.7 | 7 | –
6 | O=C1CCc2cc(OCCCCN3CCN(c4cccc5sccc45)CC3)ccc2N1 [Example 20, 6-[4-(4-benzo[b]thiophen-4-yl-piperazin-1-yl)butoxy]-3,4-dihydro-1H-quinolin-2-one] | 92.8 | 1.5 | 3.3 | –
7 | O=C1c2ccccc2CCN1CCCCCN1CCN(c2cccc3sccc23)CC1 [Example 24, 2-[5-(4-benzo[b]thiophen-4-yl-piperazin-1-yl)pentyl]-3,4-dihydro-2H-isoquinolin-1-one] | 97.5 | 5 | 2.3 | –
8 | CN1CCc2cc(OCCCN3CCN(c4cccc5sccc45)CC3)ccc2C1=O [Example 26, 6-[3-(4-benzo[b]thiophen-4-yl-piperazin-1-yl)propoxy]-2-methyl-3,4-dihydro-2H-isoquinolin-1-one] | 92 | 3.5 | 4.4 | –
9 | CCN1CCc2cc(OCCCN3CCN(c4cccc5sccc45)CC3)ccc2C1=O [Example 27, 6-[3-(4-benzo[b]thiophen-4-yl-piperazin-1-yl)propoxy]-2-ethyl-3,4-dihydro-2H-isoquinolin-1-one] | 94 | 4.9 | 4.1 | –
10 | O=c1c2ccccc2ccn1CCCCN1CCN(c2cccc3sccc23)CC1 [Example 34, 2-[4-(4-benzo[b]thiophen-4-yl-piperazin-1-yl)butyl]-2H-isoquinolin-1-one] | 94.2 | 1.2 | 1.5 | –
11 | O=c1[nH]ccc2cc(OCCCN3CCN(c4cccc5sccc45)CC3)ccc12 [Example 40, 6-[3-(4-benzo[b]thiophen-4-yl-piperazin-1-yl)propoxy]-2H-isoquinolin-1-one] | 91.6 | 4.8 | 5.1 | –
12 | NCCc1ccc(O)c(O)c1 [dopamine] | – | – | – | about 10%
